Among the data in patent US20220056019A1, “FARNESOID X RECEPTOR AGONISTS AND USES THEREOF” (Metacrine, Inc., priority 2018, published 2022) are EC50 values, retold here.

The target in this test is T1, hFXR (Homo sapiens, UniProt Q96RI1).
T1 construct: expressed in transfected cells; host or cells: CV-1 cells
T1 sequence (Q96RI1 1-486): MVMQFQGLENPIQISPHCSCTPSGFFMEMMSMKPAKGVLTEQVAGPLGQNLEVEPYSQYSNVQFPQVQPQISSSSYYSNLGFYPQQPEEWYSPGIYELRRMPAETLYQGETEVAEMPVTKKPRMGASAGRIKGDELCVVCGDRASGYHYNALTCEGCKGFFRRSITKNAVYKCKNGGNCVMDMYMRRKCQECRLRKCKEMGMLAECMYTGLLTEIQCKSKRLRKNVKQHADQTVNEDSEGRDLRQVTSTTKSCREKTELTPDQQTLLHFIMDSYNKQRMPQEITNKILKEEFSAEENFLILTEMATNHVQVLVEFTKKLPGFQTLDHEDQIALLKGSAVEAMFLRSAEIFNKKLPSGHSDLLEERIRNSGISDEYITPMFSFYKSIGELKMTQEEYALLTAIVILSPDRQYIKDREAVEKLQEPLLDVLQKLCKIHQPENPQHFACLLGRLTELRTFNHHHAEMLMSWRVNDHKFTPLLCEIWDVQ
T1 sequence (P19793 1-462 partner): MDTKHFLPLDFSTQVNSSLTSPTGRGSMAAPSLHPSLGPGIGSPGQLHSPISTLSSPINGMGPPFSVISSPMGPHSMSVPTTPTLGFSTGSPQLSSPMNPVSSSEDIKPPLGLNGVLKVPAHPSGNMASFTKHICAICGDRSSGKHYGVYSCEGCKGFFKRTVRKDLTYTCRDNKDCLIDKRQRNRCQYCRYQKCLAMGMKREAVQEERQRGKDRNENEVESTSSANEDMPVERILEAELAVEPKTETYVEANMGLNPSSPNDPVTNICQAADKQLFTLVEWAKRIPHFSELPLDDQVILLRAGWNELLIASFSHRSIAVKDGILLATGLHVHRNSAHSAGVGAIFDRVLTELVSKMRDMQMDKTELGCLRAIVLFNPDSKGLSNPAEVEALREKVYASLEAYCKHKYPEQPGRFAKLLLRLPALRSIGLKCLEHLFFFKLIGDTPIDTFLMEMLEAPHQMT
The test is described as follows: In Vitro FXR Assay (TK): TK-ECRE-luc reporter in transfected CV-1 cells. The format is cell-based. Particulars: 18 hrs incubation, luminescence. The procedure, abridged: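 First, CV-1 cells were grown overnight in stripped-serum DMEM, then transfected for 18 h with expression plasmids for human FXR and RXR plus a TK-ECRE luciferase reporter and YFP. Next, serially diluted compounds were applied for 18 h, and lysates were read by luminescence.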
As a reminder, the EC50 is the concentration needed to bring the measured effect to its halfway point. The low end stands for greater potency, the high end for weaker potency. The compound `COc1ccc(C23CCC(CN(c4cc(-c5cnn(C(C)C)c5)ccn4)C(=O)[C@H]4CC[C@H](OC(=O)N5CC(CCO)C5)CC4)(CC2)CC3)cc1C` [Compound 4.43, 4-((4-(1-Isopropyl-1H-pyrazol-4-yl)pyridin-2-yl) ((4-(4-methoxy-3-methylphenyl)bicyclo [2.2.2]octan-1-yl)methyl)carbamoyl)cyclohexyl trans-3-(2-hydroxyethyl) azetidine-1-carboxylate] came in with an EC50 of at most 50 nM. `COc1ccc(C23CCC(CN(c4cc(-c5coc(C(C)C)n5)ccn4)C(=O)[C@H]4CC[C@H](OC(=O)N5CC(CO)C5)CC4)(CC2)CC3)cc1C` [Compound 23.01, 4-((4-(2-Isopropyloxazol-4-yl)pyridin-2-yl)((4-(4-methoxy-3-methylphenyl)bicyclo[2.2.2]octan-1-yl)methyl)carbamoyl)(trans-cyclohexyl) 3-(hydroxymethyl)azetidine-1-carboxylate] registered an EC50 of at most 50 nM. As to `COc1ccc(C23CCC(CN(c4cc(-c5cnn(C(C)C)c5)ccn4)C(=O)[C@H]4CC[C@H](OC(=O)N5CC(OC)C5)CC4)(CC2)CC3)cc1C` [Compound 4.47, 4-((4-(1-Isopropyl-1H-pyrazol-4-yl)pyridin-2-yl) ((4-(4-methoxy-3-methylphenyl)bicyclo [2.2.2]octan-1-yl)methyl)carbamoyl)(trans-cyclohexyl) 3-methoxyazetidine-1-carboxylate], the concentration for a half-maximal effect (EC50) was at most 50 nM. Take `COCCNC(=O)O[C@H]1CC[C@H](C(=O)N(CC23CCC(c4ccc(OC)c(C)c4)(CC2)CC3)c2cc(-c3cnn(C(C)C)c3)ccn2)CC1` [Compound 4.49, 4-((4-(1-Isopropyl-1H-pyrazol-4-yl)pyridin-2-yl) ((4-(4-methoxy-3-methylphenyl)bicyclo [2.2.2]octan-1-yl)methyl)carbamoyl)cyclohexyl(2-methoxyethyl)trans-carbamate]: the EC50 is at most 50 nM.

With `COc1ccc([C@H]2CC[C@H](CN(c3cc(-c4cnn(C(C)C)c4)ccn3)C(=O)[C@H]3CC[C@H](OC(=O)NCCC(C)(C)O)CC3)CC2)cc1C` [Compound 2.21, trans-4-((4-(1-Isopropyl-1H-pyrazol-4-yl)pyridin-2-yl) ((trans-4-(4-methoxy-3-methylphenyl)cyclohexyl)methyl)carbamoyl) cyclohexyl(3-hydroxy-3-methylbutyl)carbamate], the EC50 was at most 50 nM. In turn, `COc1ccc([C@H]2CC[C@H](CN(c3cc(-c4cnn(C(C)C)c4)ccn3)C(=O)[C@H]3CC[C@H](OC(=O)N4CC(CO)C4)CC3)CC2)cc1C` [Compound 2.03, trans-4-((4-(1-Isopropyl-1H-pyrazol-4-yl)pyridin-2-yl)(((trans)-4-(4-methoxy-3-methylphenyl)cyclohexyl)methyl)carbamoyl)cyclohexyl 3-(hydroxymethyl) azetidine-1-carboxylate] registered an EC50 of at most 50 nM.

`COc1ccc([C@H]2CC[C@H](CN(c3cccc(-c4cnn(C(C)C)c4)c3)C(=O)[C@H]3CC[C@H](OC(=O)NCC(C)(C)O)CC3)CC2)nc1C` [Compound 5.01, trans-4-((3-(1-Isopropyl-1H-pyrazol-4-yl)phenyl)((trans-4-(5-methoxy-6-methylpyridin-2-yl)cyclohexyl)methyl)carbamoyl)cyclohexyl (2-hydroxy-2-methylpropyl) carbamate] came in with an EC50 of at most 50 nM. `COc1ccc([C@H]2CC[C@H](CN(c3cc(-c4cnc(C(C)C)s4)ccn3)C(=O)[C@H]3CC[C@H](OC(=O)NCC(C)(C)O)CC3)CC2)cc1C` [Compound 2.10, trans-4-((4-(2-Isopropylthiazol-5-yl)pyridin-2-yl)((trans-4-(4-methoxy-3-methylphenyl)cyclohexyl)methyl)carbamoyl) cyclohexyl(2-hydroxy-2-methylpropyl)carbamate] yielded an EC50 of at most 50 nM. For the compound `COC(=O)N[C@H]1CC[C@H](C(=O)N(CC23CCC(c4ccc(OC)c(C)c4)(CC2)CC3)c2cc(-c3cnn(C(C)C)c3)ccn2)CC1` [Compound 8, Methyl trans-(4-((4-(1-isopropyl-1H-pyrazol-4-yl)pyridin-2-yl)((4-(4-methoxy-3-methylphenyl)bicyclo[2.2.2]octan-1-yl)methyl)carbamoyl)cyclohexyl)carbamate], the EC50 is at most 50 nM. The figure for `COc1ccc(C23CCC(CN(c4cc(-c5cnn(C(C)C)c5)c(F)cn4)C(=O)[C@H]4CC[C@H](OC(=O)N5CC(O)C5)CC4)(CC2)CC3)cc1C` [Compound 26.02, 4-((5-Fluoro-4-(1-isopropyl-1H-pyrazol-4-yl)pyridin-2-yl)((4-(4-methoxy-3-methylphenyl)bicyclo[2.2.2]octan-1-yl)methyl)carbamoyl)(trans-cyclohexyl) 3-hydroxyazetidine-1-carboxylate] is at most 50 nM; for `COc1ccc(C23CCC(CN(c4ncc(F)c(-c5cnn(C(C)C)c5)c4F)C(=O)[C@H]4CC[C@H](OC(=O)N5CC(O)C5)CC4)(CC2)CC3)cc1C` [Compound 25.14, 4-((3,5-Difluoro-4-(1-isopropyl-1H-pyrazol-4-yl)pyridin-2-yl)((4-(4-methoxy-3-methylphenyl)bicyclo[2.2.2]octan-1-yl)methyl)carbamoyl)(trans-cyclohexyl) 3-hydroxyazetidine-1-carboxylate] it is at most 50 nM; for `COc1ccc([C@H]2CC[C@H](CN(c3cc(-c4cnn(C(C)C)c4)ccn3)C(=O)[C@H]3CC[C@H](OC(=O)NCC(C)(F)F)CC3)CC2)cc1C` [Compound 2.31, trans-4-((4-(1-Isopropyl-1H-pyrazol-4-yl)pyridin-2-yl)(((trans)-4-(4-methoxy-3-methylphenyl)cyclohexyl)methyl)carbamoyl) cyclohexyl(2,2-difluoropropyl)carbamate] it is at most 50 nM. The compound `COc1ccc(C23CCC(CN(c4cc(-c5coc(C(C)C)n5)ccn4)C(=O)[C@H]4CC[C@H](OC(=O)NCCO)CC4)(CC2)CC3)cc1C` [Compound 22, 4-((4-(2-Isopropyloxazol-4-yl)pyridin-2-yl)((4-(4-methoxy-3-methylphenyl)bicyclo[2.2.2]octan-1-yl)methyl)carbamoyl)cyclohexyl (2-hydroxyethyl)trans-carbamate] showed an EC50 of at most 50 nM.

For `COc1ccc(C23CCC(CN(c4cc(-c5cnn(C(C)C)c5)c(F)cn4)C(=O)[C@H]4CC[C@H](OC(=O)NCCCO)CC4)(CC2)CC3)cc1C` [Compound 25.05, 4-((5-Fluoro-4-(1-isopropyl-1H-pyrazol-4-yl)pyridin-2-yl)((4-(4-methoxy-3-methylphenyl)bicyclo[2.2.2]octan-1-yl)methyl)carbamoyl)cyclohexyl trans-(3-hydroxypropyl)carbamate], the EC50 was at most 50 nM.

The compound `COc1ccc([C@H]2CC[C@H](CN(c3cc(-c4coc(C(C)C)n4)ccn3)C(=O)[C@H]3CC[C@H](OC(=O)NC(C)C)CC3)CC2)cc1C` [Compound 2.44, trans-4-((4-(2-Isopropyloxazol-4-yl)pyridin-2-yl)(((trans)-4-(4-methoxy-3-methylphenyl)cyclohexyl)methyl)carbamoyl) cyclohexyl isopropylcarbamate] showed a concentration for a half-maximal effect (EC50) of at most 50 nM. Compound `COc1ccc([C@H]2CC[C@H](CN(c3cccc(-c4cnn(C(C)C)c4)c3)C(=O)[C@H]3CC[C@H](OC(=O)N4CCN(C)CC4)CC3)CC2)cc1C#N` [Compound 5.08, trans-4-((((trans)-4-(3-Cyano-4-methoxyphenyl)cyclohexyl)methyl)(3-(1-isopropyl-1H-pyrazol-4-yl)phenyl)carbamoyl)cyclohexyl4-methylpiperazine-1-carboxylate] displayed a 50% effective concentration (EC50) of at most 50 nM.

`COc1ccc(C23CCC(CN(c4ccc(F)c(-c5cnn(C(C)C)c5)c4F)C(=O)[C@H]4CC[C@H](OC(=O)N5CC(O)C5)CC4)(CC2)CC3)cc1C` [Compound 25.15, 4-((2,4-Difluoro-3-(1-isopropyl-1H-pyrazol-4-yl)phenyl)((4-(4-methoxy-3-methylphenyl)bicyclo[2.2.2]octan-1-yl)methyl)carbamoyl)cyclohexyl trans-3-hydroxyazetidine-1-carboxylate] came in with a half-maximal effective concentration (EC50) of at most 50 nM.

For the compound `COc1ccc([C@H]2CC[C@H](CN(c3cccc(-c4cnn(C(C)C)c4)c3)C(=O)[C@H]3CC[C@H](NC(=O)CCCO)CC3)CC2)cc1C` [Compound 14, trans-4-(4-Hydroxybutanamido)-N-(3-(1-isopropyl-1H-pyrazol-4-yl)phenyl)-N-((trans-4-(4-methoxy-3-methylphenyl)cyclohexyl)methyl)cyclohexanecarboxamide], the EC50 fell in the range of 50 to 1000 nM.
